In patent publication US20190134054A1, “ASSOCIATION OF ANTAGONISTS OF THE VASOPRESSIN RECEPTOR AND CALCIMIMETICS, COMPOSITION AND USE THEREOF FOR THE TREATMENT OF POLYCYSTIC KIDNEY” (UNIVERSITA' DEGLI STUDI DI BARI ALDO MORO, priority 2017, published 2019):
“Also recorded” adds a separate entry of the source.

Columns and labels:
[1] = test system: intracellular calcium levels; assay: Intracellular calcium levels after tolvaptan; format: cell-based; conditions: treatment with Tolvaptan; CTR=67.06±2.6 nM, P<0.0001
Method: The treatment with Tolvaptan determines an increase of the intracellular calcium levels (TLV=99.6±4.1 nM; CTR=67.06±2.6 nM, P<0.0001).

[2] = target: T1, V2 receptor (Canis lupus familiaris, UniProt O77808); assay: dDAVP-induced intracellular cAMP levels (1/netFRET) in MDCK cells; format: cell-based, canine; conditions: dDAVP+TLV vs. dDAVP and CTR
T1 construct: canine kidney cells MDCK endogenously expressing the V2 receptor; endogenous in cells; host or cells: MDCK (canine kidney cells)
T1 sequence (O77808 whole entry): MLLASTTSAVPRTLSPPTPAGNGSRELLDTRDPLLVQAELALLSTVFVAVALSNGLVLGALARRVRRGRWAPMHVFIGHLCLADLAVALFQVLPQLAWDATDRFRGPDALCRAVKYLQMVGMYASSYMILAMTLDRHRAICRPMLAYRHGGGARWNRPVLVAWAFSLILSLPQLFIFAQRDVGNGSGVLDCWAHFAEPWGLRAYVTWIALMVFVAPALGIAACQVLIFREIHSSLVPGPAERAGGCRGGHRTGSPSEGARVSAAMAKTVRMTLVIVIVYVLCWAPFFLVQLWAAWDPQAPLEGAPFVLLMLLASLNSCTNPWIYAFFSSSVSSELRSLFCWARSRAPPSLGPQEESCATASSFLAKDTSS
Source text: The effects of the antagonists of the vasopressin receptor on the concentration of intracellular cAMP have been studied in the canine kidney cells MDCK endogenously expressing the V2 receptor.
Such a reduction of the cAMP levels has been detected through 1/netFRET.
Thus, the treatment with Tolvaptan leads to a reduction of the intracellular cAMP levels. The cAMP levels have been measured through 1/netFRET.

[3] = test system: ciPTEC-PC1Pt cells; assay: Intracellular calcium levels after tecalcet (Fura 2), ciPTEC-PC1Pt cells; format: cell-based, human; conditions: 10 μM, ciPTEC-PC1Pt cells (ADPKD patients), n=30
Method: (§1) The experiments described from Example 1 to Example 5 have been carried out on i) ciPTEC human kidney cells of the proximal tubule isolated from healthy subjects (ciPTECwt), ii) on the same cells silenced for the gene encoding the polycystin 1 (ciPTE-PC1KO) and iii) on ciPTEC cells isolated from patients affected by ADPKD (ciPTEC-PC1Pt).
(§2) Three types of the aforementioned cellular lines have been treated with 10 μM calciomimetic tecalcet, and the result is that the ciPTEC-PC1Pt cells, isolated from patients suffering from the polycystic kidney disease, respond similarly to the ciPTECwt cells to the stimulation with the calciomimetic, thus leading to an increase of intracellular calcium levels (FIG. 4). Such intracellular calcium levels, in the present example, have been detected thanks to the colorant Fura 2 that is sensitive to calcium.
(§3) The ciPTEC-PC1Pt cells respond similarly to the ciPTECwt cells to the stimulation with NPS-R568 calciomimetic, also called tecalcet, at a concentration of 10 μM. […] The intracellular calcium levels have been measured through the colorant Fura 2 that is sensitive to calcium.

[4] = test system: mTOR signaling pathway; assay: mTOR signaling: S6 ribosomal protein phosphorylation, ciPTEC-PC1Pt cells; format: cell-based, human; conditions: 10 μM
Source text: as §1
(§4) In the present example, the activity of mTOR has been studied by detecting the phosphorylation levels of the S6 ribosomal protein.
(§5) By treating the aforementioned cells with the calciomimetic tecalcet at the concentration of 10 μM, the activity of mTOR is reduced, thus decreasing the S6 phosphorylation.

[5] = test system: ciPTEC-PC1KO cells; assay: Intracellular calcium levels after tecalcet (Fura 2), ciPTEC-PC1KO cells; format: cell-based, human; conditions: 10 μM, n=47
Method: as §1, §2, §3

[6] = test system: ciPTECwt cells; assay: Intracellular calcium levels after tecalcet (Fura 2), ciPTECwt cells; format: cell-based, human; conditions: 10 μM, n=40
Method: as §1, §2, §3

[7] = test system: mTOR signaling pathway; assay: mTOR signaling: S6 ribosomal protein phosphorylation, ciPTEC-PC1KO cells; format: cell-based, human; conditions: 10 μM
Source text: as §1, §4, §5

[8] = test system: ciPTEC-PC1KO cells; assay: Intracellular cAMP levels after tecalcet (FRET), ciPTEC-PC1KO cells; format: cell-based, human; conditions: 10 μM, 1/netFRET
Source text: as §1
(§6) Such cAMP levels have been measured through FRET.
(§7) The cAMP levels have been measured through 1/netFRET.

[9] = test system: ciPTEC-PC1Pt cells; assay: Intracellular cAMP levels after tecalcet (FRET), ciPTEC-PC1Pt cells; format: cell-based, human; conditions: 10 μM, 1/netFRET
Source text: as §1, §6, §7

SMILES	intracellular calcium levels [1] [nM]	cAMP levels induced by vasopressin (dDAVP) [2]	intracellular calcium levels, response vs. ATP 100% [3] [%]	S6 phosphorylation levels (mTOR activity) [4]	intracellular calcium levels, response vs. ATP 100% [5] [%]	intracellular calcium levels, response vs. ATP 100% [6] [%]	S6 phosphorylation levels (mTOR activity) [7]	basal intracellular cAMP levels [8]	basal intracellular cAMP levels [9]
Cc1ccccc1C(=O)Nc1ccc(C(=O)N2CCCC(O)c3cc(Cl)ccc32)c(C)c1 (stereo not drawn) [Tolvaptan]	99.6 ± 4.1	comparable to those of the control							
COc1cccc([C@@H](C)NCCCc2ccccc2Cl)c1 [tecalcet]			29.51±3.93	reduces the phosphorylation of S6	24.32±2.59	90.68±2.47	comparable levels to those observed in the ciPTECwt cells; also recorded: reduces the phosphorylation of S6	reduces the basal cAMP levels	reduces the basal cAMP levels
